Data taken from US8541193B2, “Cationic anti-microbial peptides and methods of use thereof” (Systagenix Wound Management (US), Inc., priority 2003, dated 2013).
Where no end group is shown, it is not given here.

What was measured:
[1] = test system: Pseudomonas; test: Fluorimetric (edans/dabcyl) protease detection assay with bacterial culture or supernatant in buffer; type: biochemical
Protocol: (§1) The peptide substrates used here were labeled with the fluorescent probe edans (5-((2-aminoethyl)amino)naphthalene-1-sulphonic acid) and the quencher dye molecule dabcyl((4-(4-(dimethylamino)phenyl)azo)benzoic acid).
(§2) The bacteria were grown in an incubator overnight at 37° C. in 5 ml BHI (Brain Heart Infusion) media. Each of the resulting cultures was split into two samples. One was used as is, and the other was spun down and the supernatant was collected. The assays were run in 20 mM tris buffer (pH 7.4) with 150 mM NaCl added. The reaction was carried out with 7 μl of culture or supernatant and 3 μl peptide substrate (5 mg/ml in water) in 100 μl total volume at 37 C. The reaction was followed on a fluorimetric plate reader using an excitation wavelength of 355 nm and an emission wavelength of 485 nm.
(§3) The first set of experiments was performed by addition of the bacterial culture (media and cells) directly into the assay solution. If the protease is attached to the cell membrane it would not be expected to be found secreted into the media. Thus, the presence of cells would be necessary.
(§4) Bacterial cells used in this assay were grown to stationary phase in Brain Heart Infusion (BHI) medium. Briefly, 7 μl of bacterial culture was incubated with 3 μl of LL 1 peptide substrate and […] of […]). The reaction was followed on a 96 well microtiter plate reader using an excitation an emission wavelength of 355 nm and 538 nm respectively at 37° C. The reaction was monitored for a period of 1 hr. and plotted using the KALEIDAGRAPH software. Buffer, 20 mM Tris buffer (pH 7.4) with 150 mM NaCl.
(§5) The assay was repeated using identical conditions with the peptide LL2.
(§6) Bacterial cells used in this assay were grown to stationary phase in Brain Heart Infusion (BHI) medium. The assay was performed as previously described.

[2] = test system: S. pyogenes; test: as above; type: biochemical
Protocol: as §1, §2, §3, §4, §5, §6

[3] = test system: Serratia; test: Fluorimetric (edans/dabcyl) protease detection assay with bacterial culture in buffer; type: biochemical; conditions: Serratia bacterial culture (media and cells), 37 C, 1 hr
Protocol: as §1, §2
The first set of experiments was performed by addition of the bacterial culture (media and cells) directly into the assay solution. If the protease is attached to the cell membrane it would not be expected to be found secreted into the media. […]
Bacterial cells used in this assay were grown to stationary phase in Brain Heart Infusion (BHI) medium. […] The reaction was followed on a 96 well microtiter plate reader using an excitation an emission wavelength of 355 nm and 538 nm respectively at 37° C. The reaction was monitored for a period of 1 hr. and plotted using the KALEIDAGRAPH software. […]

[4] = test system: proteinases secreted by Streptococcus pyogenes; conditions: in vitro; cited from earlier work
[5] = test system: proteinases secreted by Enterococcus faecalis; conditions: in vitro; cited from earlier work
[6] = test system: proteinases secreted by Pseudomonas aeruginosa; conditions: in vitro; cited from earlier work
[7] = test system: proteinases secreted by Proteus mirabilis; conditions: in vitro; cited from earlier work
[8] = test system: Pseudomonas; test: Porcine wound fluid protease assay; type: biochemical
Protocol: (§7) In order to test for cross reactivity in a wound, the assays were performed under physiologically relevant conditions. The assay for LL1 and LL2 were tested using porcine wound fluid extract in place of reaction buffer.
(§8) Immediately after surgery to create partial thickness wounds for the sensor study a gauze dressing was placed on the wound. After a time the dressing was removed, bagged, and placed in a freezer at −80 C. Absorbed wound fluid was recovered from the dressing by incubation in 10 mls buffer (0.1M Tris-HCl, pH 7.4 with 0.1% TRITON X-100® non-ionic surfactant (Octylphenol ethylene oxide condensate; Sigma Aldrich, St. Louis, Mo.). The dressing was incubated on both sides for 2 hours at room temperature and squeezed out. The fluid obtained was aliquoted out and frozen at −20 C.
as §2, with “was” for “was split into two samples. One was used as is, and the other was”, “freshly thawed wound fluid.” for “20 mM tris buffer (pH 7.4) with 150 mM NaCl added.”
(§9) The protease assay was run using the LL2 peptide previously identified as a substrate for S. pyogenes and Pseudomonas.
(§10) Bacterial cells used in this assay were grown to stationary phase in Brain Heart Infusion […] medium. Briefly, 5 μl of bacterial culture was incubated with 3 μl of LL2 peptide substrate and 92 μl of sterile wound fluid. The reaction was followed on a 96 well microtiter plate reader using an excitation an emission wavelength of 355 nm and 538 nm respectively at 37° C. The reaction was monitored for a period of 1 h and plotted using the KALEIDAGRAPH software.

[9] = test system: S. pyogenes; test: Porcine wound fluid protease assay; type: biochemical; conditions: S. pyogenes bacterial supernatant in porcine wound fluid
Protocol: as §7, §8
as §2, with “was” for “was split into two samples. One was used as is, and the other was”, “freshly thawed wound fluid.” for “20 mM tris buffer (pH 7.4) with 150 mM NaCl added.”
as §9, §10

[10] = Pseudomonas bacterial culture (media and cells), buffer, 37 C, 1 hr
[11] = Pseudomonas bacterial supernatant, compared with culture with cells
[12] = S. pyogenes bacterial culture (media and cells), buffer, 37 C, 1 hr

| Substance | protease activity on peptide substrate (fluorescence) [1, 10] | protease activity on peptide substrate (fluorescence) [1, 11] | protease activity on peptide substrate (fluorescence) [2, 12] | protease activity on peptide substrate (fluorescence) ([2]; S. pyogenes bacterial supernatant, compared with culture with cells) | protease activity on peptide substrate (fluorescence) [3] | degradation of peptide by secreted proteinases [4] | degradation of peptide by secreted proteinases [5] | degradation of peptide by secreted proteinases [6] | degradation of peptide by secreted proteinases [7] | specificity of peptide substrate ([2]; FIG. 3 legend) | protease activity on peptide substrate (fluorescence) ([8]; Pseudomonas bacterial culture in sterile porcine wound fluid, 37 C, 1 h) | protease activity on peptide substrate (fluorescence) ([8]; Pseudomonas bacterial supernatant in porcine wound fluid) | protease activity on peptide substrate (fluorescence) [9] |
| --- | --- | --- | --- | --- | --- | --- | --- | --- | --- | --- | --- | --- | --- |
| LL1: peptide substrate, variant of LL-37 encompassing its cleavage sites, labeled with fluorescent probe edans and quencher dabcyl (FIG. 1B) (KEKIGKEFKRIVQE; also: labeled with edans and dabcyl) | Some protease activity | reduced | Some protease activity | similar | a small amount of activity | – | – | – | – | – | – | – | – |
| LLGDFFRKSKEKIGKE FKRIVQRIKDFLRNLVPRTES [LL-37] | – | – | – | – | – | degrade | degrade | degrade | degrade | – | – | – | – |
| LL2: peptide substrate, variant of LL-37 encompassing its cleavage sites, labeled with fluorescent probe edans and quencher dabcyl (FIG. 1C) (KVQRIKDFLRNLVE; also: labeled with edans and dabcyl) | overall reactivity appears to be reduced somewhat | reduced | overall reactivity appears to be reduced somewhat | – | – | – | – | – | – | specific for S. pyogenes | did not have any activity above the background | same results | same results |
